One may read the MIC as the least concentration at which growth counts as inhibited.

The results in this text go back to ChEMBL document CHEMBL4130372, “The antitrypanosomal and antitubercular activity of some nitro(triazole/imidazole)-based aromatic amines” (Eur J Med Chem, 2017).

Molecules are shown by their SMILES. In brackets after ≈: the same amount, converted by molar mass.

Common to all, as to format: functional
The subject of assay [1] is Mycobacterium tuberculosis. As to the kind of experiment: Antitubercular activity against Mycobacterium tuberculosis FQ-R1 harboring gyrB D94N mutant after 5 days by fluorescence-based assay.
Assay [2] has as its system Mycobacterium tuberculosis. Kind of assay: Antitubercular activity against Mycobacterium tuberculosis RIF-R1 harboring rpoB S522L mutant after 5 days by fluorescence-based assay.
Assay [3] has as its system Mycobacterium tuberculosis. As to the kind of experiment: Antitubercular activity against Mycobacterium tuberculosis INH-R1 harboring katG Y155 truncated mutant after 5 days by fluorescence-based assay.

In the case of `O=[N+]([O-])c1ncn(CCCCNc2ncnc3ccccc23)n1`, the figures for the MIC in assay [1], in assay [2] and in assay [3] were more than 200 µM, more than 200 µM and 200 µM (≈ 62.7 µg/mL), respectively.

With `O=[N+]([O-])c1nccn1CCCCNc1ccnc2c(Cl)cccc12`, the MIC in assay [1], in assay [2] and in assay [3] was more than 200 µM throughout.

On to `NNC(=O)c1ccncc1` [ISONIAZID], for which the MIC in assay [1] is 0.35 µM (≈ 0.048 µg/mL); in assay [2], 0.31 µM (≈ 0.0425 µg/mL); in assay [3], more than 200 µM.

For `C[C@H]1COc2c(N3CCN(C)CC3)c(F)cc3c(=O)c(C(=O)O)cn1c23.C[C@H]1COc2c(N3CCN(C)CC3)c(F)cc3c(=O)c(C(=O)O)cn1c23.O` [LEVOFLOXACIN], the figures for the MIC in assay [1], in assay [2] and in assay [3] were 14 µM, 0.85 µM and 1.1 µM, respectively.

`CO[C@H]1/C=C/O[C@@]2(C)Oc3c(C)c(O)c4c(O)c(c(/C=N/N5CCN(C)CC5)c(O)c4c3C2=O)NC(=O)/C(C)=C\C=C\[C@H](C)[C@H](O)[C@@H](C)[C@@H](O)[C@@H](C)[C@H](OC(C)=O)[C@@H]1C` [RIFAMPIN]: the MIC in assay [1] was more than 0.04 µM; in assay [2] it was 7.2 µM (≈ 5.93 µg/mL); in assay [3] it was 0.012 µM (≈ 0.00988 µg/mL).
